What was measured:
[1] = biological target: Cyclin-dependent kinase 7/ cyclin H (Homo sapiens) (UniProt P51946+P50613); assay: Residual activity of CDK7/CyclinH/MAT1 at 0.1 uM by microplate scintillation counting; assay type: protein-complex assay
[2] = biological target: T1, Serine/threonine-protein kinase Nek1 (Homo sapiens) (UniProt Q96PY6); assay: Residual activity of NEK1 at 0.1 uM by microplate scintillation counting
T1 sequence (whole entry): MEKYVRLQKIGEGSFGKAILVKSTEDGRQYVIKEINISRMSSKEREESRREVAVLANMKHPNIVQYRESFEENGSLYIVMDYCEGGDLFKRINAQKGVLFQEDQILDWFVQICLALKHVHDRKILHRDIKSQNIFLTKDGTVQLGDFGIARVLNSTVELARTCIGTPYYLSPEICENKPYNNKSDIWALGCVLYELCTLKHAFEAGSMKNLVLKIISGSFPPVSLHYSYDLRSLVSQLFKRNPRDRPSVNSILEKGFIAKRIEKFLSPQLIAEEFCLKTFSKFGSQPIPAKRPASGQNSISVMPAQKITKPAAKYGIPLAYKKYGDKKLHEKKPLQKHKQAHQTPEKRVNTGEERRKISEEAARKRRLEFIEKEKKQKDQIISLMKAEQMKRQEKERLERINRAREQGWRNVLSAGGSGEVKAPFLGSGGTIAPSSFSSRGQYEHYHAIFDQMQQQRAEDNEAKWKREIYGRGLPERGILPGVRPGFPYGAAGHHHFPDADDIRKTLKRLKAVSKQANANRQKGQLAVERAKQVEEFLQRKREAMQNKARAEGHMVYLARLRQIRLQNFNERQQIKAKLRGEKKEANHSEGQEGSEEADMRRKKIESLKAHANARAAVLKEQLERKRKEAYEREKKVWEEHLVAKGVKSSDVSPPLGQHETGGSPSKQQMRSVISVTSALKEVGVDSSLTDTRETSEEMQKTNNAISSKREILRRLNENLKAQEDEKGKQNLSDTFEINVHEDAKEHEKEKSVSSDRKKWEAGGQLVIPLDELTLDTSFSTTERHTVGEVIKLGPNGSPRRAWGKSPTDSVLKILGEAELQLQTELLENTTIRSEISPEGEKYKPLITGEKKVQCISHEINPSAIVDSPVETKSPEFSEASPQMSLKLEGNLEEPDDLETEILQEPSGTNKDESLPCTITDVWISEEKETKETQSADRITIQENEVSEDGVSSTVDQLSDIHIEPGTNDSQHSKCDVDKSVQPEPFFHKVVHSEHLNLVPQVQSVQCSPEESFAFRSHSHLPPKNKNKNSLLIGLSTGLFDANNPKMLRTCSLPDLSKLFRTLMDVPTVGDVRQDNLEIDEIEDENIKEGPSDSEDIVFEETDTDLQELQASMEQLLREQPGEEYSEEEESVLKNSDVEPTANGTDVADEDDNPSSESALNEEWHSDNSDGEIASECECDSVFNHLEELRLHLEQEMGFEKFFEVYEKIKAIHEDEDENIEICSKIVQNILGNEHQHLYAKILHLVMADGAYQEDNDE

[3] = biological target: T2, Phosphorylase b kinase gamma catalytic chain, liver/testis isoform (Homo sapiens) (UniProt P15735); assay: Residual activity of PHKG2 at 0.1 uM by microplate scintillation counting
T2 sequence (whole entry): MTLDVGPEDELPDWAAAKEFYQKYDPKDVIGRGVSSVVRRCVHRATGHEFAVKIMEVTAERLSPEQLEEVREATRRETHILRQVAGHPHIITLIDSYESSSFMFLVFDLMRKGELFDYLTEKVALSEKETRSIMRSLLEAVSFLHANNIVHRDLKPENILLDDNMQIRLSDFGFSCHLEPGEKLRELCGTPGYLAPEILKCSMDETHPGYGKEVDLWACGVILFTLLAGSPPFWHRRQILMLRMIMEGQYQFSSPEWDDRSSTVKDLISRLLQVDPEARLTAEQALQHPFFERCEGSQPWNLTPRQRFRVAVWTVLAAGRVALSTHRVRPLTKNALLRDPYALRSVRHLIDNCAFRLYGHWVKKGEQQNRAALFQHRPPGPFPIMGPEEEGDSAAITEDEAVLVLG

[4] = biological target: Serine/threonine-protein kinase MRCK beta (Homo sapiens) (UniProt Q9Y5S2); assay: Residual activity of CDC42BPB at 1 uM by microplate scintillation counting
Chain of Serine/threonine-protein kinase MRCK beta (Homo sapiens) (Q9Y5S2 whole entry): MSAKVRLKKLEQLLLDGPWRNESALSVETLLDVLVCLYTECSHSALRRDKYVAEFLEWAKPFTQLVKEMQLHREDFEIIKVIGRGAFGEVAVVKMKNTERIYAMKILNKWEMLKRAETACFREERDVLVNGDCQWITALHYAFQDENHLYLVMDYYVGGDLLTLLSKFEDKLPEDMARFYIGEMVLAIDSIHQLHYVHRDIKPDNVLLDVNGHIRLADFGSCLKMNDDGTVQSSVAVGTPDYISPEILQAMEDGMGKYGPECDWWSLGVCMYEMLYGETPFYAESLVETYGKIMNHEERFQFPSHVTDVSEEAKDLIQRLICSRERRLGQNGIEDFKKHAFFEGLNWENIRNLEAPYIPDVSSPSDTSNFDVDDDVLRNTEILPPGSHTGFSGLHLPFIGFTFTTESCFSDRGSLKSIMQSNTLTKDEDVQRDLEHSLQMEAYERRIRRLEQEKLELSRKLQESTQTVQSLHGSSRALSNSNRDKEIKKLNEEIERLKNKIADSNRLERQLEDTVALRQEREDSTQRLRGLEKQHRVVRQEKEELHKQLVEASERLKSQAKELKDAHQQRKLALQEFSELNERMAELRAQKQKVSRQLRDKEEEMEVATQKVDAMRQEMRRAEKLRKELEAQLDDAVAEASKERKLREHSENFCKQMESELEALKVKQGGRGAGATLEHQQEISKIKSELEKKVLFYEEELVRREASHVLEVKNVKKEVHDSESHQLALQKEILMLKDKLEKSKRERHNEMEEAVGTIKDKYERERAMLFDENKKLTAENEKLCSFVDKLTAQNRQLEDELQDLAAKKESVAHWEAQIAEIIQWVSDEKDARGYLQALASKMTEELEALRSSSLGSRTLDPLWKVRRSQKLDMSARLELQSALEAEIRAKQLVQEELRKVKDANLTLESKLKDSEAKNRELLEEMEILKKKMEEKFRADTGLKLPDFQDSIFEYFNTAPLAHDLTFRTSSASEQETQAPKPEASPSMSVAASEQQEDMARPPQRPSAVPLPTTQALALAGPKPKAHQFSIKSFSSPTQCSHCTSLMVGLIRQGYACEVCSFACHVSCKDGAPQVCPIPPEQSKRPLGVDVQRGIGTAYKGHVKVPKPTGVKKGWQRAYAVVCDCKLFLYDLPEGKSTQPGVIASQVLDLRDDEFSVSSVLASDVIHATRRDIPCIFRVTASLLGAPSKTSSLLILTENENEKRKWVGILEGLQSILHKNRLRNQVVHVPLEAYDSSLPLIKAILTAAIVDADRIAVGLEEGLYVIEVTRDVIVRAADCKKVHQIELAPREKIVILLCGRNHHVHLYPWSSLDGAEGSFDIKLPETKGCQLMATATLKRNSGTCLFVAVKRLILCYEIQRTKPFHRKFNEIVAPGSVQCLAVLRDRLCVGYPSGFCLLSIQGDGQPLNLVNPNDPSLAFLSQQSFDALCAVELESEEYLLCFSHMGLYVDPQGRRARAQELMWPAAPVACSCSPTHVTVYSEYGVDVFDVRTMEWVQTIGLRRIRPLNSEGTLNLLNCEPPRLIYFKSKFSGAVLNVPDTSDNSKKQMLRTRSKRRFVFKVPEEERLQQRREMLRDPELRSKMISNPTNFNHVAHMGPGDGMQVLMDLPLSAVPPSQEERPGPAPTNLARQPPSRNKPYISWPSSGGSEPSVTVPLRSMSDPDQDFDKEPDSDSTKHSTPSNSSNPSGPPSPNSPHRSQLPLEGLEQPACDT

[5] = biological target: T3, Eukaryotic elongation factor 2 kinase (Homo sapiens) (UniProt O00418); assay: Residual activity of EEF2K at 1 uM by microplate scintillation counting
T3 sequence (whole entry): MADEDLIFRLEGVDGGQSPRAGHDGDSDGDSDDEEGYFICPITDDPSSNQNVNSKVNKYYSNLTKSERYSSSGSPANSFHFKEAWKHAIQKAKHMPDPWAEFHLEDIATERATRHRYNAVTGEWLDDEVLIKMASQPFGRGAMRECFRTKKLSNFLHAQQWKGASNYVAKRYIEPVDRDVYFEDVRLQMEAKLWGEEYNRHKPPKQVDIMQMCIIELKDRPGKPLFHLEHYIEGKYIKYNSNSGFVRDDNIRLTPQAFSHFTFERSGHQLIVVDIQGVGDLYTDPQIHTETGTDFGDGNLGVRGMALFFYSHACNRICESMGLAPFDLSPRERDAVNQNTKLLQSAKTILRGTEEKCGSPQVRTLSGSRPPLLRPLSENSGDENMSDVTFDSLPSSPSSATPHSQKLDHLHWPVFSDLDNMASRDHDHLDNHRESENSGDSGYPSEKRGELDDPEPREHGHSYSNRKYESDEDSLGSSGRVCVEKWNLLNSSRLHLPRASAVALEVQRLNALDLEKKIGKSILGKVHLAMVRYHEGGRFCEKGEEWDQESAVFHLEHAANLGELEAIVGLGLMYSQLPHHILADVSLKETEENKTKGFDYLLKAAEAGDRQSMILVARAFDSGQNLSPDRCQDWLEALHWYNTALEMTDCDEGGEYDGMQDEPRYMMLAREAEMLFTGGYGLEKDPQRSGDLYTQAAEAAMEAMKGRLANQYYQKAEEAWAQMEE

[6] = Residual activity of PKA at 0.1 uM by microplate scintillation counting

| SMILES | residual activity [1] [%] | residual activity [2] [%] | residual activity [3] [%] | residual activity [4] [%] | residual activity [5] [%] | residual activity [6] [%] |
| --- | --- | --- | --- | --- | --- | --- |
| COc1cc2c(Oc3ccc(-c4nc5ccccc5s4)cc3F)ncnc2cc1OCCCN1CCN(C)CC1 | 86 | 93 | 53 | 90 | 90 | 98 |
| COc1cc2c(Oc3ccc(-c4nc5ccccc5s4)cc3)ncnc2cc1OCCCN1CCCC1 | 97 | 98 | 83 | 99 | 86 | 95 |
| COc1cc2c(Oc3ccc(-c4nc5ccccc5s4)cc3)ncnc2cc1OCCCN1CCN(C)CC1 | 104 | 87 | 86 | 100 | 82 | 89 |

Source: ChEMBL document CHEMBL1152560, “Substituted 2-arylbenzothiazoles as kinase inhibitors: hit-to-lead optimization” (Bioorg Med Chem, 2009)
